Measured values as given in ChEMBL document CHEMBL5038669, “Development of the First Covalent Monopolar Spindle Kinase 1 (MPS1/TTK) Inhibitor” (J Med Chem, 2022).
Activity calls are given as the source filed them. The rule behind the calls is not given here.

Tests used:
[1] = target: T1, Serine/threonine-protein kinase 17B (Homo sapiens) (UniProt O94768); settings: dose 10.0 µM
T1 sequence (whole entry): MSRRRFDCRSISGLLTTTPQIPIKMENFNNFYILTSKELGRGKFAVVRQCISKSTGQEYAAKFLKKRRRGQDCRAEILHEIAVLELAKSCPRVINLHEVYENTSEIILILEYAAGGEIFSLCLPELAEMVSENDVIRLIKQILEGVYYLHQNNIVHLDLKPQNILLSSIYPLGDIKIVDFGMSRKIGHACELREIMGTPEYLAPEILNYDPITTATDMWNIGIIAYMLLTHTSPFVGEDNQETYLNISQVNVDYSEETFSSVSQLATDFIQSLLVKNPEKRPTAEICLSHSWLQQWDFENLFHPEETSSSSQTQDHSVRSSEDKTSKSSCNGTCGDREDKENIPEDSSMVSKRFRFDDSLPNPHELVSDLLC

[2] = target: T2, Dual specificity protein kinase TTK (Homo sapiens) (UniProt P33981); test: Displacement of tracer K9 from NanoLuc-fused MPS1 (unknown origin) expressed in HEK293T cells at 10 fold IC50 preincubated for 2 hrs followed by compound washout by NanoBRET assay; assay type: cell-based
T2 sequence (whole entry): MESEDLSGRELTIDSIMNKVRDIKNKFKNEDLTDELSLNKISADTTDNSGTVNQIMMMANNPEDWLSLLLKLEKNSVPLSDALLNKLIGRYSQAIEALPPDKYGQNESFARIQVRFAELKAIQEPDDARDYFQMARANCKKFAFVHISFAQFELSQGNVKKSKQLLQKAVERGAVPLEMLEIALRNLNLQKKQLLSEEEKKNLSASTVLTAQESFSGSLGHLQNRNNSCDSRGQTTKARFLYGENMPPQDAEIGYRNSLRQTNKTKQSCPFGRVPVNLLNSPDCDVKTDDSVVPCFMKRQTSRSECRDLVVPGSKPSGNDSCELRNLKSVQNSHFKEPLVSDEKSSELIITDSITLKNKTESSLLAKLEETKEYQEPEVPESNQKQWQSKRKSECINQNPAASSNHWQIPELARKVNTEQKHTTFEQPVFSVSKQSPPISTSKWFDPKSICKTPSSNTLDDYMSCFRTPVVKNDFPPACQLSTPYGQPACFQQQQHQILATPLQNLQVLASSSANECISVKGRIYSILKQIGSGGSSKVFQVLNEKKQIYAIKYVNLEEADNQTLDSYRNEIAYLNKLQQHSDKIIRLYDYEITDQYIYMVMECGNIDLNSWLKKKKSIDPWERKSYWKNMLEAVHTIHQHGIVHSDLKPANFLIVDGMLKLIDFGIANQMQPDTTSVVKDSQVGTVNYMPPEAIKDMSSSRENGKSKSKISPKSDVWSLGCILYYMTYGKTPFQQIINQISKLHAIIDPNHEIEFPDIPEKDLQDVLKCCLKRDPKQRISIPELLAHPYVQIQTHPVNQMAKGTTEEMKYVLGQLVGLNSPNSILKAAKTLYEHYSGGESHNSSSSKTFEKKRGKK

ΔTm [1]: 11.5 °C | Activity [2]: inactive
SMILES: COc1cc(OC2CCN(C)CC2)ccc1Nc1ncc2c(n1)n(C1CCCC1)c(=O)n2C
